Measured values published in patent US11918628B2, “Controlled-release PTH compound” (ASCENDIS PHARMA BONE DISEASES A/S, priority 2016, dated 2024).

Key:
[1] = test system: patients with hypoparathyroidism; conditions: cited from earlier work
rats = conditions: daily injections; cited from earlier work
[2] = test system: patients with hypoparathyroidism; conditions: cited from earlier work; remark: listed apart in the source
patients = conditions: 6-year follow-up; cited from earlier work
TPTx rats = assay: 28-days study in thyroparathyroidectomised (TPTx) rats with daily subcutaneous injections of conjugate 18 or PTH(1-84); assay type: in vivo, rat
Experimental: Quantitative measurements of serum calcium (sCa), urinary calcium and serum phosporous (sP) were performed on a Roche-Hitachi P800 modular biochemistry instrument.
This study was performed in order to test and compare the effect of daily subcutaneous injection of compound 18 and PTH(1-84), the current standard of care, in an animal disease model relevant for investigating treatment of hypoparathyroidism (HP). Rats subjected to thyroparathyroidectomy (TPTx) by blunt dissection are unable to produce parathyroid hormone, PTH, the major regulator of calcium homeostasis. […] 17 weeks old female SD TPTx rats (n=9/group) were dosed subcutaneously for 28 days with compound 18 ([…]; 1.2 nmol/kg/d, in 10 mM succinic acid, 46 g/L mannitol, pH 4.0), PTH(1-84) (70 μg PTH eq/kg/d; 7.3 nmol/kg/d; in 10 mM citrate, mannitol 39.0 g/L, pH 5.0) or vehicle. Additionally, one group of sham operated rats (n=9) representing normophysiological background control were also given vehicle. Serum calcium (sCa) and phosporous (sP) levels in the animals were measured pre- and post-dose on days 1, 6, 12 and 27. Moreover, bone turnover markers (P1NP and CTx) were measured and bone quality assessed by ex vivo pQCT.

| Molecule | daily dose with pump delivery, lower than with the twice daily injection regimen ([1]; pump delivery versus twice daily injection) [%] | calcium levels with pump delivery ([1]; pump delivery, over 6-months) | urinary calcium excretion with pump delivery ([1]; pump delivery) | osteosarcoma rate (rats) | urinary calcium excretion 2-8 hours after injection ([2]; 2-8 hours after injection) | urinary calcium excretion over the 24-hour period ([2]; 24-hour period after injection) | urinary phosphate excretion ([2]; after injection) | participants who achieved normal blood calcium levels on reduced doses of calcium supplements and active forms of vitamin D ([2]; pivotal trial, once-daily sc, adjunct to vitamin D and calcium) [%] | patients who developed hypercalcemia at one or more measurements during a 24-hour period ([2]; serum calcium monitored after injection) [%] | incidences of hypercalcemia, hypocalcemia or hypercalciuria relative to conventional therapy ([2]; treated patients) | bone mineral density (BMD) by DXA (patients) | bone turnover markers (patients) | trabecular and cortical BMD/bone in vertebrae after 28 days of treatment (TPTx rats; TPTx rats, 28 days daily sc) | trabecular BMD compared to both control groups (TPTx rats; TPTx rats, 28 days daily sc, 7.3 nmol/kg/d) | sCa ratio treated/sham-control at day 12 (TPTx rats; TPTx rats, daily sc, day 12) | effect on serum phosphorous (sP) (TPTx rats; TPTx rats, daily sc, compound 18 1.2 nmol/kg/d, PTH(1-84) 7.3 nmol/kg/d) | effect on serum calcium (sCa) (TPTx rats; TPTx rats, daily sc, compound 18 1.2 nmol/kg/d, PTH(1-84) 7.3 nmol/kg/d, versus vehicle-injected TPTx rats) | serum calcium (sCa) at day 12 (TPTx rats; female SD TPTx rats, daily sc, day 12) [mg/dL] |
| --- | --- | --- | --- | --- | --- | --- | --- | --- | --- | --- | --- | --- | --- | --- | --- | --- | --- | --- |
| CC[C@H](C)[C@H](NC(=O)[C@H](CCC(=O)O)NC(=O)[C@H](CO)NC(=O)[C@@H](NC(=O)[C@@H](N)CO)C(C)C)C(=O)N[C@@H](CCC(N)=O)C(=O)N[C@@H](CC(C)C)C(=O)N[C@@H](CCSC)C(=O)N[C@@H](Cc1cnc[nH]1)C(=O)N[C@@H](CC(N)=O)C(=O)N[C@@H](CC(C)C)C(=O)NCC(=O)N[C@@H](CCCCN)C(=O)N[C@@H](Cc1cnc[nH]1)C(=O)N[C@@H](CC(C)C)C(=O)N[C@@H](CC(N)=O)C(=O)N[C@@H](CO)C(=O)N[C@@H](CCSC)C(=O)N[C@@H](CCC(=O)O)C(=O)N[C@@H](CCCN=C(N)N)C(=O)N[C@H](C(=O)N[C@@H](CCC(=O)O)C(=O)N[C@@H](Cc1c[nH]c2ccccc12)C(=O)N[C@@H](CC(C)C)C(=O)N[C@@H](CCCN=C(N)N)C(=O)N[C@@H](CCCCN)C(=O)N[C@@H](CCCCN)C(=O)N[C@@H](CC(C)C)C(=O)N[C@@H](CCC(N)=O)C(=O)N[C@@H](CC(=O)O)C(=O)N[C@H](C(=O)N[C@@H](Cc1cnc[nH]1)C(=O)N[C@@H](CC(N)=O)C(=O)N[C@@H](Cc1ccccc1)C(=O)O)C(C)C)C(C)C [PTH(1-34)] | 65 | normal, steady state calcium levels with minimal fluctuation | marked reduction | dose dependent increase |  |  |  |  |  |  |  |  |  |  |  |  |  |  |
| PTH(1-84): Natpara, PTH(1-84), polypeptide with the sequence of SEQ ID NO:1; the current standard of care |  |  |  | dose dependent increase | reduced | did not change | increased only during the first 8 hours | 42 | 71 | has not demonstrated an ability to reduce | increases in lumbar spine and declines in the distal ⅓ radius | remained greater than pretreatment values | anabolic effect | significant increase | 0.76 | minimal decrease | did not lead to increase in sCa | 8.1 |
